{
  "source": "paper PMC12164026",
  "about": "“Plant-derived nodule-specific cysteine-rich peptides as potent antifungal agents against Cryptococcus neoformans: mechanisms of action, chimeric peptide enhancement, and immunomodulatory effects” (Current Research in Microbial Sciences, 2025)",
  "key": {"C. neoformans cells": {"tested_on": "C. neoformans cells", "assay": "Effect of X1-NCR247C and calcofluor white on CFU", "type": "cell-based, Cryptococcus neoformans", "experimental": "To assess the effect of X1-NCR247C peptide and calcofluor white, C. neoformans cells were subjected to different treatments. […] For staining, cells were treated with calcofluor white at 2.5 µg/mL for the same duration. As a control, cells were incubated only with calcofluor white for 20 min.\nFor combined treatment, cells were first exposed to calcofluor white (2.5 µg/mL) for 5 min, followed by the addition of X1-NCR247C (0.39 µM), and the incubation continued for 15 additional minutes. Following treatment, cells were washed once with sterile distilled water to remove residual peptide and dye. Serial 10-, 100-, 1000-, and 10,000-fold dilutions were prepared, and 50 µL from each dilution was plated onto solid YPD medium in triplicate. After 48 h of incubation at 30 °C, colony-forming units were counted to determine cell viability under each condition."}, "[1]": {"tested_on": "C. neoformans IFM 5844 cells", "assay": "Cell membrane permeability, calcein-AM assay by flow cytometry", "type": "cell-based, Cryptococcus neoformans", "details": "half-MIC, 2 h, 30 °C, YNB", "experimental": "The effect of the peptides on the cell membrane permeability of C. neoformans IFM 5844 cells was checked by flow cytometry with calcein-AM assay ([Olson, et al., 2001]). Calcein-acetoxymethyl ester (calcein-AM) is a membrane-permeable live-cell dye that, upon entering the cell, is cleaved by intracellular esterases, converting it into calcein, a membrane-impermeable fluorescent marker. The assay was carried out by suspending a total of 1 × 10^7 cells in 100 µl YNB medium containing 20 µg/mL indomethacin (Sigma-Aldrich, Saint Louis, MO, USA) and incubating them at 30 °C for 30 min to inhibit calcein transporters. Following this pre-treatment, membrane-permeable calcein-AM (Invitrogen, Waltham, MA, USA) was added to a final concentration of 5 µg/mL, and the samples were incubated at 30 °C for 3 h allowing the calcein-AM to enter the cells where esterases converted it to fluorescent calcein. After incubation, cells were washed twice with sterile distilled water and subsequently exposed to peptides at half-MIC concentrations in YNB medium for 2 h at 30 °C. Following peptide treatment, cells were washed twice with sterile distilled water, and fluorescence intensity was measured using a FlowSight® flow cytometer (Amnis-EMD Millipore) equipped with a 488-nm excitation laser. Intact cells stained with calcein-AM but not exposed to peptides served as controls. To ensure statistical reliability, four independent experiments were conducted, and fluorescence intensity was recorded from 10,000 cells per sample during each experiment."}},
  "note": "Peptide text beside a SMILES is read from it.",
  "data": [
    {"smiles": "CSCC[C@H](NC(=O)[C@H](CCCCN)NC(=O)[C@H](Cc1ccccc1)NC(=O)[C@H](CC(N)=O)NC(=O)[C@H](CC(C)C)NC(=O)[C@@H]1CCCN1C(=O)[C@@H](N)CCCNC(=N)N)C(=O)N[C@@H](CC(C)C)C(=O)N[C@@H](CCCNC(=N)N)C(=O)N[C@@H](Cc1ccccc1)C(=O)N[C@@H](Cc1c[nH]c2ccccc12)C(=O)NCC(=O)N[C@@H](CCC(N)=O)C(=O)N[C@@H](CCC(N)=O)C(=O)N[C@@H](CCC(N)=O)C(=O)N[C@@H](CS)C(=O)N[C@@H](CCCNC(=N)N)C(=O)N[C@@H](CCCNC(=N)N)C(=O)N1CCC[C@H]1C(=O)N[C@@H](CC(C)C)C(=O)N[C@@H](Cc1ccc(O)cc1)C(=O)N[C@@H](CS)C(=O)N[C@@H](CCCNC(=N)N)C(=O)N[C@@H](CCCNC(=N)N)C(=O)N[C@@H](CCCNC(=N)N)C(N)=O", "note": "[X1-NCR247C] (H-RPLNFKMLRFWGQQQCRRPLYCRRR-NH2; N-terminus assumed)", "values": [
      {"measurement": "effect on CFU counts", "setting": "C. neoformans cells; calcofluor white (2.5 µg/mL) pre-treatment 5 min, then peptide 0.39 µM for 15 min", "result": "no reduction in the number of colony-forming units was observed"},
      {"measurement": "effect on CFU counts", "setting": "C. neoformans cells; peptide 0.39 µM (MIC) alone, 20 min, YNB, p ≤ 0.0001", "result": "significantly decrease cell viability"},
      {"measurement": "calcein leakage / membrane permeability disruption", "setting": "[1]", "result": "slightly weaker effect"}
    ]}
  ]
}
